Measurements taken from a melting point compilation (Tetko et al.; mined from patent text by program, amines drawn as free bases though some values may be those of a salt).
Non-standard residues stand in square brackets, D forms with d. Residues, ends and D or L forms follow the SMILES beside them. *: point of attachment. Tic = O=C(O)[C@@H]1Cc2ccccc2CN1; Abu = CC[C@H](N)C(=O)O; NHBu = CCCCN*

Row | Structure (SMILES) | melting point
1 | O=C(Nc1nc(C(Cl)(Cl)Cl)ns1)c1ccc([N+](=O)[O-])cc1 | 214 °C
2 | COc1cc2c(Nc3ccc4cn[nH]c4c3)c(C#N)cnc2cc1OCCN1CCSCC1 | 213 to 215 °C
3 | O=P(O)(O)C1(P(=O)(O)O)CCN2C=CC=CC2=N1 | 80 °C
4 | CCC[C@H]1CC[C@H](c2ncc(C(N)=O)cn2)CC1 | 234 to 235 °C
5 | CC(c1cccc(C(F)(F)F)c1N)S(C)(=O)=O (stereo not drawn) | 153 to 155 °C
6 | COc1cc(-c2nc(C(C)C)no2)cc2oc(=O)c(C)c(C)c12 | 142 °C
7 | O=C(COc1cc(N2C(=O)C3=C(CCCC3)C2=O)c(F)cc1Cl)OCc1nc[nH]n1 | 151 to 154 °C
8 | C=CCN(CC=C)Cc1csc(-c2ncn3c2[C@@H]2CCCN2C(=O)c2c(Cl)cccc2-3)n1 | 186 to 187 °C
9 | CCCn1c(COCC)nc2c(N)nc3cc(OC4CCN(C(C)=O)CC4)ccc3c21 | 178 to 180 °C
10 | N#Cc1cc(N2C=CN=CC2)c[nH]c1=O | > 250 °C
11 | CCCCCC(O)/C=C/n1ccnc1 (stereo not drawn) | 145 to 148 °C
12 | CC(=Cc1ccc(N(C)C)cc1)C(=O)O | 190 to 194 °C
13 | O=CNc1ccc(F)c(Cl)c1 | 94 to 97 °C
14 | O=c1n(-c2cc(OCCCl)c(Cl)cc2Cl)nc2n1CCCC2 | 148 to 150 °C
15 | COC1(c2csc(Sc3ccc4c(c3)OCC/C4=N\O)c2)CCOCC1 | 137 to 138 °C
16 | O=S(=O)(c1ccc(O)cc1)N1CCCC1 | 122 to 125 °C
17 | CCC(CC)c1ccc(Cl)c2nc3n(c12)CCCCN3c1ccc(C(=O)NC)cc1C | 127 to 128 °C
18 | Cc1ccc(C(=O)N2CCOCC2)cc1[N+](=O)[O-] | 108 to 110 °C
19 | CCCCNC(=O)[C@@H]1Cc2ccccc2CN1C(=O)[C@@H](N)CC (H-[Abu]-[Tic]-NHBu) | 105 to 110 °C
20 | COC(=O)c1ccc2sc(C)c(Cl)c2c1 | 85 to 86 °C

Row | Structure (SMILES) | melting point
21 | CN(Cc1cnc(Cl)s1)C(=N)N[N+](=O)[O-] | 116 to 117 °C
22 | N=C(N)c1ccc(N2CCN(C3CCC(CCC(=O)O)CC3)C2=O)cc1 (stereo not drawn) | > 200 °C
23 | CCOC(=O)/C=C/c1ccc(Br)nc1 | 79 to 80 °C
24 | OC1(c2nccnc2Cl)CN2CCC1CC2 (stereo not drawn) | 215 to 216 °C
25 | CCCCCCCCCCCCCCCCCCC1CNc2ccc(C(=O)O)cc21 (racemic) | 84 to 87 °C
26 | N#Cc1c(Cl)nc2ccc([N+](=O)[O-])cc2c1Cl | 190 to 192 °C
27 | CCOC(=O)c1cc(O)c2c(OC(C)C)ccc(Br)c2c1 | 106 °C
28 | CC(C)(C)C(=O)CCSC(=S)Nc1ccc(Cl)cn1 | 111 °C
29 | CCCc1nc(I)c(CO)[nH]1 | 169 to 170 °C
30 | COc1cc(C(=O)C2C(=O)N(C)C(=O)N(C)C2=O)ccc1Oc1nc2ccccc2s1 | 210 to 211 °C
31 | CC(=O)Nc1ccc(C(=O)CCC(=O)O)cc1Cl | 168 to 170 °C
32 | CCNc1c(F)cc2c(=O)c(C(=O)O)cn(-c3cc(N)c(F)cc3F)c2c1Cl | 252 to 255 °C
33 | CCCCCS(=O)(=O)NC(=O)CCc1ccc(OCCOC)cc1Oc1ncc(C(F)(F)F)cc1Cl | 140 to 142 °C
34 | CCCCCN(CCC12CC3CC(CC(C3)C1)C2)C(=O)NCCNc1ccncc1 | 134 °C
35 | COc1cc(C)c(C=CC(C)=CC=O)cc1C | 90 to 92 °C
36 | CCCC1=C(C(=O)OCC)C(c2cccc([N+](=O)[O-])c2)C(C(=O)OCC)=C(CCC)N1COCC | 109 to 110 °C
37 | COc1cc(CCC(=O)CC(=O)CCc2ccc(O)c(OC)c2)ccc1O | 92 to 94 °C
38 | CCCCCS(=O)(=O)NC(=O)/C=C/c1ccc(C)n1Cc1ccc(Cl)cc1Cl | 189 to 190 °C
39 | COc1ccc(C(=O)C=Cc2c(O)cc(OCCBr)cc2O)cc1O | 158 to 162 °C
40 | CN1CCN(CCCNc2ncc3cc(-c4c(Cl)cccc4Cl)c(=O)n(C)c3n2)CC1 | 170 to 172 °C

The remaining lines, values ahead:

Row | melting point | Structure (SMILES)
41 | 239 °C | Fc1ccc2c(c1)C1OC1c1ccccc1C2 (stereo not drawn)
42 | 242 to 243 °C | COc1cc(C=CC(=O)Nc2cnc3ccc(C)cc3c2-c2ccccc2C)cc(OC)c1OC(C)=O
43 | 51 °C | CCCCCCCCOc1ccc(-c2ccc(C(=O)O[C@@H](C)C(=O)OCCCC)cc2)cc1
44 | 109 to 111 °C | O=C(c1ccc(Cl)cc1)n1cc(Cc2cc(=O)n(C3CCCCC3)[nH]2)c2ccccc21
45 | 209 to 211 °C | COC(=O)CCn1cc(C2=C(c3cn(C)c4ccccc34)C(=O)NC2=O)c2ccccc21
46 | 178 °C | CC(C)(C)OC(=O)N1CCCC[C@H]1C(OC(=O)Nc1ccc2[nH]ncc2c1)c1cccc(C(=O)O)c1 (stereo partly drawn)
47 | 108 to 111 °C | Cn1nc(-c2c(F)cccc2Cl)nc1C(=O)c1ccc(Cl)cc1
48 | 134 °C | Cc1ccc(C(=S)c2ccc(Cl)cc2)cc1
49 | 173 to 174 °C | COc1ccc(Cn2c(=O)nc(C3CC3)c3cc(-c4cccc(Cl)c4)ccc32)cc1
50 | 159 °C | O=c1cnn(-c2ccc(Cl)c(C(c3ccc(Cl)cc3)c3nc(-c4ccccc4)c(CNC(=S)Nc4ccccc4)s3)c2Cl)c(=O)[nH]1 (stereo not drawn)
51 | 62 to 64 °C | CCOC(=O)C(C)Oc1ncn(-c2ccc(Cl)cc2)n1 (stereo not drawn)
52 | 69 to 71 °C | COc1ccc(N2CC(=O)NC(=O)N2)cc1C
53 | 210 to 214 °C | CNc1nonc1-c1nc2ccccc2n1CC(=O)c1ccc(Cl)cc1
54 | 124 to 134 °C | COc1cc(OCc2ccncc2)ccc1/C=C/c1cc(/C=C/c2cc3ccccc3[nH]2)n[nH]1
55 | 129 to 132 °C | Nc1nc(NC2Cc3ccccc3C2)nc2c1ncn2C1OC(CO)C(O)C1O (stereo not drawn)
56 | 133 to 134 °C | CCOC(=O)CCN1CCN(C2=Nc3ccccc3Cc3ccccc32)CC1
57 | 105 to 108 °C | COc1ccc([C@@H]2Cc3c(cccc3C(F)(F)F)N(CC3=NCCN3C(=O)OC(C)(C)C)C(=O)[C@@H]2OC(C)=O)cc1
58 | 166 to 168 °C | Cc1cccc2ncc3nnnn3c12
59 | 140 to 145 °C | Nc1cc(Cl)c(Cc2ccc(C(=O)c3cnc(Cl)c(Cl)c3)cc2)c(Cl)c1
60 | 135 to 136 °C | COc1cc(CO)ccc1OCc1cn(-c2ccccn2)nc1C

Row | melting point | Structure (SMILES)
61 | 184 to 186 °C | Fc1ccc(C2CC(n3cncn3)c3ccccc3N2)cc1 (stereo not drawn)
62 | 136 to 139 °C | O=C1c2ccccc2SCC1(CO)CO
63 | 96 to 98 °C | COC(=O)c1c(C)nc(C)c(C(=O)Cl)c1-c1ccccc1[N+](=O)[O-]
64 | 138 to 140 °C | Cc1nn(CC(F)COCc2ccccc2)c(-c2ccc(F)cc2)c1-c1ccc2c(c1)NC(=O)CO2 (stereo not drawn)
65 | > 360 °C | CCOC(=O)c1ccc2c(c1)ncn2-c1cc(Cl)ccc1O
66 | 178 to 180 °C | COc1ccc(-n2nc(C(F)(F)F)cc2-c2ccc(S(C)(=O)=O)cc2)cc1F
67 | 116 to 119 °C | O=C(CCl)N1CC=C(c2cccc(C(F)(F)F)c2)n2ncc(Cl)c21
68 | 123 °C | COc1ccc(CC2(C)CN(C(c3ccccc3)c3ccccc3)CCN2)cc1OC (stereo not drawn)
69 | 98 to 99 °C | CCc1nc(COc2ccc(NC(=O)/C=C/c3cnn(C)c3-c3ccc(F)cc3)cc2)cs1
70 | > 250 °C | COc1cc2ncc(C#N)c(Nc3ccc(Cl)c4ccccc34)c2cc1OC
71 | 65 to 69 °C | CCCCN(Cc1ccc(-c2ccccc2-c2nnn[nH]2)cc1)c1ncncc1C(=O)OCOC(C)=O
72 | 70 to 71 °C | CCc1ncnc(NC2CCc3cc(OC)ccc3C2)c1Cl (stereo not drawn)
73 | 161 to 162 °C | O=S(=O)(NCC(O)(Cn1cncn1)c1ccc(F)cc1F)c1ccc(C(F)(F)F)cc1 (stereo not drawn)
74 | 139 to 140 °C | FC(F)(F)c1cccc(-c2ccnc(Nc3ccc4c(c3)OCCO4)c2)c1
75 | 141 to 143 °C | COC(=O)C1=C(C=O)NC(C)=C(C(=O)OCC(C)(C)C)C1c1ccccc1C#N (stereo not drawn)
76 | 211 to 213 °C | CNc1ncc2c(n1)N(c1ccccc1)C(=O)N(c1c(Cl)cccc1Cl)C2
77 | 60 to 61 °C | Fc1ccc(SC(F)(F)C(F)(F)C(F)(F)C(F)(F)C(F)(F)C(F)(F)C(F)(F)C(F)(F)Sc2ccc(F)cc2)cc1
78 | 149 to 150 °C | c1coc(-c2ccc(-c3ccco3)cc2)c1
79 | 111 °C | COC(=O)Cn1ccc2ccc(-c3nccc(-c4ccccc4)n3)cc21
80 | 120 to 122 °C | CNCCc1cccc(N2C(=O)N(c3ccc(Cl)cc3Cl)Cc3cnc(Nc4ccccc4)nc32)c1

Row | melting point | Structure (SMILES)
81 | 215 to 216 °C | Cc1c(C(=O)Nc2ccc(N3CCC(N4CCOCC4)CC3)c(C#N)c2)cnn1-c1cccc(C(F)(F)F)c1
82 | 158 to 160 °C | Clc1ccc(-c2coc3c(Br)cccc23)cc1Cl
83 | 164 to 166 °C | C/C(=C\c1ccc(Cc2cccnc2)cc1)C(=O)O
84 | > 280 °C | CN1CC2CN(C(=O)N3c4ccccc4NC(=O)c4c3c(Cl)cn4C)CC2C1 (stereo not drawn)
85 | 81 to 82 °C | CNC(=O)/C(=N/OC)c1ccccc1COc1cccc(OC)n1
86 | 135 to 136 °C | COC(=O)C(=O)c1ccc(OCCOc2ccc3ccccc3c2)cc1F
87 | 139 °C | O=c1[nH]c2ccccc2n1CCCN1CCN(C(c2ccccc2)c2ccccc2Cl)CC1 (stereo not drawn)
88 | 90 to 92 °C | COC(=O)CCSc1ccc(C=C(C)c2ccc3c(c2)C(C)(C)CCC3(C)C)cc1
89 | 95 to 96 °C | OC(CNCCN(c1ccccc1)c1ccccc1)COc1ccccc1 (stereo not drawn)
90 | 146 °C | CNS(=O)(=O)c1cc(C(=O)c2c(C)oc3ccccc23)ccc1Cl
91 | 190 °C | NC(=O)[C@@H]1[C@H](Nc2c(Br)cnc3[nH]c(-c4cccnc4N4CCCC4)nc23)[C@H]2C=C[C@@H]1C2
92 | 157 °C | Cc1cccc(-c2nc3ccc(Cl)cn3c2-c2ccnc(-c3ccc(CN4CCOCC4)cc3)c2)n1
93 | 227 to 230 °C | FC(F)(F)c1ccc(-c2cc(Cl)ncn2)cc1
94 | 74 to 75 °C | Nc1ccccc1C(=O)NCCCCN1CCC(OC(c2ccccc2)c2ccccc2)CC1
95 | 220 to 222 °C | COc1ccc(C(=O)N2CCc3cc(S(=O)(=O)N4CC(c5ccccc5)NC4=O)ccc32)cc1 (stereo not drawn)
96 | 121 °C | CCOC(=O)c1ccc(C#CC(O)c2cc(-c3ccccc3)cc3c2C(C)(C)CCC3(C)C)cc1 (stereo not drawn)
97 | 108 to 110 °C | Cc1ccc(C(=O)Nc2cc(F)ccc2F)cc1
98 | 164 to 165 °C | COc1cc(Oc2cccc(C)n2)c(C=CC(=O)c2ccc(S(N)(=O)=O)cc2)cc1-c1cccs1
